Reference: publication PMC10455244, “Alpha-Mangostin: A Potent Inhibitor of TRPV3 and Pro-Inflammatory Cytokine Secretion in Keratinocytes” (International Journal of Molecular Sciences, 2023)

Molecular target: T1, TRPV4 (Homo sapiens, UniProt Q9HBA0)
T1 construct: host or cells: HEK 293T (transient transfection)
Test: Whole-cell patch-clamp, GSK101-activated TRPV4 current in transfected HEK 293T cells
Format: cell-based
Method: Next, we examined the impact of alpha-mangostin on other TRP channels. TRPV4- and TRPA1 trasfected HEK 293T were activated using 300 nM GSK-1016790A (GSK101) and 100 µM allyl isothiocyanate (AITC), respectively. […] The dose–response curves were obtained by applying various concentrations of alpha-mangostin (Figure 2C).
Figure 2 Alpha-mangostin (α-MG) inhibited the TRPV3 current more effectively than other TRP channels. (A) Representative I–V curves from whole-cell recordings illustrate the inhibitory effect of 0.3 µM alpha-mangostin on TRPV4 and TRPA1 channels (GSK101: GSK-1016790A, a TRPV4 agonist; RR: ruthenium red, a TRP inhibitor; AITC: allyl isothiocyanate, a TRPA1 agonist; A967: A-967079, a TRPA1 inhibitor). Currents were elicited with ramp pulses from −100 to +100 mV over 1 s, which were repetitively applied every 20 s; the holding potential was set at 0 mV. (B) Summary of the inhibition percentage after 0.3 µM alpha-mangostin treatment at −100 mV. […]
In the whole-cell configuration, voltage ramps from −100 to +100 mV over 1 s were applied every 20 s and the holding potential was set at 0 mV. Sampling at 10 kHz and low-pass filtering at 5 kHz (w-c) were applied for all recorded currents. Recorded data were analyzed using Clampfit ver. […]

T1 sequence (Q9HBA0 whole entry, species assumed): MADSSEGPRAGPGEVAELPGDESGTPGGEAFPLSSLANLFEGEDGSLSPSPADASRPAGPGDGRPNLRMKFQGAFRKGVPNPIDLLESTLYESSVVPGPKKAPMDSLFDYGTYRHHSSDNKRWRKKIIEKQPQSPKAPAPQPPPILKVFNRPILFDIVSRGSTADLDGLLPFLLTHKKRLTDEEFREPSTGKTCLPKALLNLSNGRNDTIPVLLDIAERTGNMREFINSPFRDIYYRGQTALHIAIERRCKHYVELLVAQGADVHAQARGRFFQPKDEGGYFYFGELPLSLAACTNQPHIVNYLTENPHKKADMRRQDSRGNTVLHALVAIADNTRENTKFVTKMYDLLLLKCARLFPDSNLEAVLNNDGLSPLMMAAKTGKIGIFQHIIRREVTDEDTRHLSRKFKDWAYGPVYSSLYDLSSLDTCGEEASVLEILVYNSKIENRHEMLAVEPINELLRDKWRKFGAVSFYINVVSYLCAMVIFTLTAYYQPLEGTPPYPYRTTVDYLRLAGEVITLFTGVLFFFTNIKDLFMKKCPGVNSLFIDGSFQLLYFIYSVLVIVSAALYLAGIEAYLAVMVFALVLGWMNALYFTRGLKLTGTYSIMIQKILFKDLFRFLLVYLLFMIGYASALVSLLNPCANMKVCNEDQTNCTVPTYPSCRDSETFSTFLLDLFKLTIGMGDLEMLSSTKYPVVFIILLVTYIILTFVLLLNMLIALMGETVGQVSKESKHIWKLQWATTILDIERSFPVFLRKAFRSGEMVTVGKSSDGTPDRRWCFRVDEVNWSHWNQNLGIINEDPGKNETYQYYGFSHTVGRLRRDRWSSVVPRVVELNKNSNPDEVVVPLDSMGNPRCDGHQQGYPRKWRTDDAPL

COc1c(O)cc2oc3cc(O)c(CC=C(C)C)c(O)c3c(=O)c2c1CC=C(C)C [Alpha-mangostin]
inhibition at 0.3 µM (HEK-293T, 0.3 µM, 300 nM GSK101, −100 mV, read-out: Inhibition percentage of TRPV4 current): 16.1% | IC50 (transfected HEK 293T, 300 nM GSK101, read-out: IC50, inhibition of TRPV4 current): 8.47 ± 1.72 µM
